{"source": "the supplement of paper PMC13380429", "settings_in_all_cases": "72 h", "key": {"[1]": {"test_system": "Caco-2", "experiment": "cell viability relative to DMSO; higher = less toxic"}, "[2]": {"test_system": "Calu-3", "experiment": "cell viability relative to DMSO; higher = less toxic"}, "[3]": {"test_system": "HepG2", "experiment": "cell viability relative to DMSO; higher = less toxic"}, "[4]": {"test_system": "U2OS", "experiment": "cell viability relative to DMSO; higher = less toxic"}, "[5]": {"test_system": "Vero E6", "experiment": "cell viability relative to DMSO; higher = less toxic"}, "[6]": {"test_system": "Caco-2", "experiment": "relative viability EC50 (midpoint between 100% and the lowest measured viability); higher = less toxic"}, "[7]": {"test_system": "Calu-3", "experiment": "relative viability EC50 (midpoint between 100% and the lowest measured viability); higher = less toxic"}, "[8]": {"test_system": "HepG2", "experiment": "relative viability EC50 (midpoint between 100% and the lowest measured viability); higher = less toxic"}, "[9]": {"test_system": "U2OS", "experiment": "relative viability EC50 (midpoint between 100% and the lowest measured viability); higher = less toxic"}, "[10]": {"test_system": "Vero E6", "experiment": "relative viability EC50 (midpoint between 100% and the lowest measured viability); higher = less toxic"}, "[11]": {"test_system": "Caco-2", "experiment": "drug sensitivity score (DSS) for viability; higher = more toxic; extreme values may be limits of the assay"}, "[12]": {"test_system": "Calu-3", "experiment": "drug sensitivity score (DSS) for viability; higher = more toxic; extreme values may be limits of the assay"}, "[13]": {"test_system": "HepG2", "experiment": "drug sensitivity score (DSS) for viability; higher = more toxic; extreme values may be limits of the assay"}, "[14]": {"test_system": "U2OS", "experiment": "drug sensitivity score (DSS) for viability; higher = more toxic; extreme values may be limits of the assay"}, "[15]": {"test_system": "Vero E6", "experiment": "drug sensitivity score (DSS) for viability; higher = more toxic; extreme values may be limits of the assay"}}}
{"smiles": "O=C(Nc1cc(C(F)(F)F)cc(C(F)(F)F)c1)Nc1c(Br)cc(Br)cc1-c1nnn[nH]1", "note": "[NS-5806]", "values": [{"measurement": "cell viability", "setting": "[1]; 1 nM", "value": 93.7, "unit": "%"}, {"measurement": "cell viability", "setting": "[1]; 10 nM", "value": 97.8, "unit": "%"}, {"measurement": "cell viability", "setting": "[1]; 100 nM", "value": 97.1, "unit": "%"}, {"measurement": "cell viability", "setting": "[1]; 1000 nM", "value": 98.2, "unit": "%"}, {"measurement": "cell viability", "setting": "[1]; 10000 nM", "value": 91.7, "unit": "%"}, {"measurement": "cell viability", "setting": "[2]; 1 nM", "value": 94.2, "unit": "%"}, {"measurement": "cell viability", "setting": "[2]; 10 nM", "value": 95.4, "unit": "%"}, {"measurement": "cell viability", "setting": "[2]; 100 nM", "value": 95.3, "unit": "%"}, {"measurement": "cell viability", "setting": "[2]; 1000 nM", "value": 98.2, "unit": "%"}, {"measurement": "cell viability", "setting": "[2]; 10000 nM", "value": 87.9, "unit": "%"}, {"measurement": "cell viability", "setting": "[3]; 1 nM", "value": 107, "unit": "%"}, {"measurement": "cell viability", "setting": "[3]; 10 nM", "value": 95.3, "unit": "%"}, {"measurement": "cell viability", "setting": "[3]; 100 nM", "value": 106, "unit": "%"}, {"measurement": "cell viability", "setting": "[3]; 1000 nM", "value": 96.6, "unit": "%"}, {"measurement": "cell viability", "setting": "[3]; 10000 nM", "value": 108, "unit": "%"}, {"measurement": "cell viability", "setting": "[4]; 1 nM", "value": 98.6, "unit": "%"}, {"measurement": "cell viability", "setting": "[4]; 10 nM", "value": 103, "unit": "%"}, {"measurement": "cell viability", "setting": "[4]; 100 nM", "value": 94.6, "unit": "%"}, {"measurement": "cell viability", "setting": "[4]; 1000 nM", "value": 105, "unit": "%"}, {"measurement": "cell viability", "setting": "[4]; 10000 nM", "value": 98.9, "unit": "%"}, {"measurement": "cell viability", "setting": "[5]; 1 nM", "value": 98.8, "unit": "%"}, {"measurement": "cell viability", "setting": "[5]; 10 nM", "value": 99.2, "unit": "%"}, {"measurement": "cell viability", "setting": "[5]; 100 nM", "value": 105, "unit": "%"}, {"measurement": "cell viability", "setting": "[5]; 1000 nM", "value": 102, "unit": "%"}, {"measurement": "cell viability", "setting": "[5]; 10000 nM", "value": 102, "unit": "%"}, {"measurement": "relative viability EC50", "setting": "[6]", "value": "> 10", "unit": "µM"}, {"measurement": "relative viability EC50", "setting": "[7]", "value": "> 10", "unit": "µM"}, {"measurement": "relative viability EC50", "setting": "[8]", "value": "> 10", "unit": "µM"}, {"measurement": "relative viability EC50", "setting": "[9]", "value": "> 10", "unit": "µM"}, {"measurement": "relative viability EC50", "setting": "[10]", "value": "> 10", "unit": "µM"}, {"measurement": "drug sensitivity score", "setting": "[11]", "value": 0}, {"measurement": "drug sensitivity score", "setting": "[12]", "value": 0}, {"measurement": "drug sensitivity score", "setting": "[13]", "value": 0}, {"measurement": "drug sensitivity score", "setting": "[14]", "value": 0}, {"measurement": "drug sensitivity score", "setting": "[15]", "value": 0}]}
{"smiles": "O=c1oc2c(O)c(O)cc3c(=O)oc4c(O)c(O)cc1c4c23", "note": "[ellagic-acid]", "values": [{"measurement": "cell viability", "setting": "[1]; 1 nM", "value": 104, "unit": "%"}, {"measurement": "cell viability", "setting": "[1]; 10 nM", "value": 95.8, "unit": "%"}, {"measurement": "cell viability", "setting": "[1]; 100 nM", "value": 104, "unit": "%"}, {"measurement": "cell viability", "setting": "[1]; 1000 nM", "value": 98.5, "unit": "%"}, {"measurement": "cell viability", "setting": "[1]; 10000 nM", "value": 96.6, "unit": "%"}, {"measurement": "cell viability", "setting": "[2]; 1 nM", "value": 98.4, "unit": "%"}, {"measurement": "cell viability", "setting": "[2]; 10 nM", "value": 95.9, "unit": "%"}, {"measurement": "cell viability", "setting": "[2]; 100 nM", "value": 99.4, "unit": "%"}, {"measurement": "cell viability", "setting": "[2]; 1000 nM", "value": 100, "unit": "%"}, {"measurement": "cell viability", "setting": "[2]; 10000 nM", "value": 93.2, "unit": "%"}, {"measurement": "cell viability", "setting": "[3]; 1 nM", "value": 93.6, "unit": "%"}, {"measurement": "cell viability", "setting": "[3]; 10 nM", "value": 97, "unit": "%"}, {"measurement": "cell viability", "setting": "[3]; 100 nM", "value": 97.5, "unit": "%"}, {"measurement": "cell viability", "setting": "[3]; 1000 nM", "value": 96.4, "unit": "%"}, {"measurement": "cell viability", "setting": "[3]; 10000 nM", "value": 91.9, "unit": "%"}, {"measurement": "cell viability", "setting": "[4]; 1 nM", "value": 99.3, "unit": "%"}, {"measurement": "cell viability", "setting": "[4]; 10 nM", "value": 99.6, "unit": "%"}, {"measurement": "cell viability", "setting": "[4]; 100 nM", "value": 103, "unit": "%"}, {"measurement": "cell viability", "setting": "[4]; 1000 nM", "value": 100, "unit": "%"}, {"measurement": "cell viability", "setting": "[4]; 10000 nM", "value": 105, "unit": "%"}, {"measurement": "cell viability", "setting": "[5]; 1 nM", "value": 99.1, "unit": "%"}, {"measurement": "cell viability", "setting": "[5]; 10 nM", "value": 106, "unit": "%"}, {"measurement": "cell viability", "setting": "[5]; 100 nM", "value": 100, "unit": "%"}, {"measurement": "cell viability", "setting": "[5]; 1000 nM", "value": 105, "unit": "%"}, {"measurement": "cell viability", "setting": "[5]; 10000 nM", "value": 107, "unit": "%"}, {"measurement": "relative viability EC50", "setting": "[6]", "value": "> 10", "unit": "µM"}, {"measurement": "relative viability EC50", "setting": "[7]", "value": "> 10", "unit": "µM"}, {"measurement": "relative viability EC50", "setting": "[8]", "value": "> 10", "unit": "µM"}, {"measurement": "relative viability EC50", "setting": "[9]", "value": "> 10", "unit": "µM"}, {"measurement": "relative viability EC50", "setting": "[10]", "value": "> 10", "unit": "µM"}, {"measurement": "drug sensitivity score", "setting": "[11]", "value": 0}, {"measurement": "drug sensitivity score", "setting": "[12]", "value": 0}, {"measurement": "drug sensitivity score", "setting": "[13]", "value": 0}, {"measurement": "drug sensitivity score", "setting": "[14]", "value": 0}, {"measurement": "drug sensitivity score", "setting": "[15]", "value": 0}]}
{"smiles": "Nc1ccc(O)c(C(=O)O)c1", "note": "[mesalazine]", "values": [{"measurement": "cell viability", "setting": "[1]; 1 nM", "value": 112, "unit": "%"}, {"measurement": "cell viability", "setting": "[1]; 10 nM", "value": 98.6, "unit": "%"}, {"measurement": "cell viability", "setting": "[1]; 100 nM", "value": 109, "unit": "%"}, {"measurement": "cell viability", "setting": "[1]; 1000 nM", "value": 97.7, "unit": "%"}, {"measurement": "cell viability", "setting": "[1]; 10000 nM", "value": 100, "unit": "%"}, {"measurement": "cell viability", "setting": "[2]; 1 nM", "value": 109, "unit": "%"}, {"measurement": "cell viability", "setting": "[2]; 10 nM", "value": 100, "unit": "%"}, {"measurement": "cell viability", "setting": "[2]; 100 nM", "value": 107, "unit": "%"}, {"measurement": "cell viability", "setting": "[2]; 1000 nM", "value": 96.5, "unit": "%"}, {"measurement": "cell viability", "setting": "[2]; 10000 nM", "value": 102, "unit": "%"}, {"measurement": "cell viability", "setting": "[3]; 1 nM", "value": 112, "unit": "%"}, {"measurement": "cell viability", "setting": "[3]; 10 nM", "value": 100, "unit": "%"}, {"measurement": "cell viability", "setting": "[3]; 100 nM", "value": 103, "unit": "%"}, {"measurement": "cell viability", "setting": "[3]; 1000 nM", "value": 104, "unit": "%"}, {"measurement": "cell viability", "setting": "[3]; 10000 nM", "value": 97.3, "unit": "%"}, {"measurement": "cell viability", "setting": "[4]; 1 nM", "value": 103, "unit": "%"}, {"measurement": "cell viability", "setting": "[4]; 10 nM", "value": 101, "unit": "%"}, {"measurement": "cell viability", "setting": "[4]; 100 nM", "value": 103, "unit": "%"}, {"measurement": "cell viability", "setting": "[4]; 1000 nM", "value": 96.8, "unit": "%"}, {"measurement": "cell viability", "setting": "[4]; 10000 nM", "value": 104, "unit": "%"}, {"measurement": "cell viability", "setting": "[5]; 1 nM", "value": 105, "unit": "%"}, {"measurement": "cell viability", "setting": "[5]; 10 nM", "value": 104, "unit": "%"}, {"measurement": "cell viability", "setting": "[5]; 100 nM", "value": 103, "unit": "%"}, {"measurement": "cell viability", "setting": "[5]; 1000 nM", "value": 102, "unit": "%"}, {"measurement": "cell viability", "setting": "[5]; 10000 nM", "value": 92.2, "unit": "%"}, {"measurement": "relative viability EC50", "setting": "[6]", "value": "> 10", "unit": "µM"}, {"measurement": "relative viability EC50", "setting": "[7]", "value": "> 10", "unit": "µM"}, {"measurement": "relative viability EC50", "setting": "[8]", "value": "> 10", "unit": "µM"}, {"measurement": "relative viability EC50", "setting": "[9]", "value": "> 10", "unit": "µM"}, {"measurement": "relative viability EC50", "setting": "[10]", "value": "> 10", "unit": "µM"}, {"measurement": "drug sensitivity score", "setting": "[11]", "value": 0}, {"measurement": "drug sensitivity score", "setting": "[12]", "value": 0}, {"measurement": "drug sensitivity score", "setting": "[13]", "value": 0}, {"measurement": "drug sensitivity score", "setting": "[14]", "value": 0}, {"measurement": "drug sensitivity score", "setting": "[15]", "value": 0}]}
